Data taken from US20210220328A1, “PYRROLE DERIVATIVES AS ACC INHIBITORS” (Almirall, S.A., priority 2017, published 2021).
pIC50: −log10 of the molar value.

System: immortalized human sebocyte cell line, SZ95
Experiment: In vitro assay of inhibition of lipid synthesis
Assay type: cell-based
Settings: 48 h, SZ95 sebocytes
Protocol: In Vitro Assay of Inhibition of Lipid Synthesis
To evaluate the inhibition of lipid synthesis, the immortalized human sebocyte cell line, SZ95 (stablished by Zouboulis, C. C. et al J Invest Dermatol 1999; 113:1011-20), was treated with arachidonic acid (AA) in presence or absence of compound. Lipids were detected by using a lipid sensing fluorophore.
Compounds were dissolved in dimethylsulfoxide (DMSO) 100%. Then the stocks were serial diluted 1/3 in DMSO 100%, and this battery of solutions were diluted 1/10 in culture medium, to minimize the percentage of the DMSO over cells.
10 k cells were plated in 384 well microtiter plates and incubated at 37° C. and 5% CO2 in DMEM/F12 supplemented with 10% FBS, 1.25 ng/ml of rhEGF and GA-1000 before of compound and stimulus addition. After 24 h, compounds dissolved in culture media were added over cells, diluting the solutions prepared 1/40 in the final volume of the assay. Then, cells and compounds were preincubated for 30 min at 37° C. and 5% CO2. After this prior incubation, the lipid synthesis was induced by 75 μM of AA final solution, preparing a solution 10× in culture media. Finally, SZ95 treated were incubated for 48 h at 37° C. and 5% CO2.
Neutral lipids were measured using AdipoRed™, purchased from LONZA. To do that, cells were washed with PBS and incubated with a solution of AdipoRed™ (final dilution 1/80 in PBS) for 30 min at room temperature. After the staining process, the fluorescence intensity (FI) was quantified using a fluorescence plate reader (excitation 485 nm; emission 535).
Activity of compounds were calculated as % of inhibition considering the maximal fluorescence for AA-stimulated cells and the minimum fluorescence for unstimulated cells as controls.

[1] = 75 μM arachidonic acid, AdipoRed, Table 2, finer classes for compounds with IC50 less than 250 nM
[2] = lipid synthesis induced by 75 μM arachidonic acid, AdipoRed fluorescence, Table 1

Structure (SMILES): CCCCCCCCCCCc1c[nH]c(C(=O)O)c1Cl [Example 57, 3-Chloro-4-undecyl-1H-pyrrole-2-carboxylic acid]
- pIC50 [1]: > 7.30
- pIC50 [2]: > 6.60

Structure (SMILES): CCCCCCCCCCCCc1c[nH]c(C(=O)O)c1Cl [Example 58, 3-Chloro-4-dodecyl-1H-pyrrole-2-carboxylic acid]
- pIC50 [1]: > 7.30
- pIC50 [2]: > 6.60

Structure (SMILES): CCCCCCCCCCCCc1cc(Cl)c(C(=O)OCC(F)(F)F)[nH]1 [Example 113, 2,2,2-Trifluoroethyl 3-chloro-5-dodecyl-1H-pyrrole-2-carboxylate]
- pIC50 [2]: 5.30 to 6.00

Structure (SMILES): CCCCCCCCCCCc1cc(Cl)c(C(=O)O)[nH]1 [Example 64, 3-Chloro-5-undecyl-1H-pyrrole-2-carboxylic acid]
- pIC50 [1]: 7.00 to 7.30
- pIC50 [2]: > 6.60

Structure (SMILES): CCCCCCCCCCCCC(F)COc1c[nH]c(C(=O)O)c1Cl (stereo not shown) [Example 99, 3-Chloro-4-((2-fluorotetradecyl)oxy)-1H-pyrrole-2-carboxylic acid]
- pIC50 [1]: 6.60 to 7.00
- pIC50 [2]: > 6.60

Structure (SMILES): CCCCCCCCCCCCOc1c[nH]c(C(=O)OCCOCCOCC)c1Cl [Example 83, 2-(2-Ethoxyethoxy)ethyl 3-chloro-4-(dodecyloxy)-1H-pyrrole-2-carboxylate]
- pIC50 [2]: 6.00 to 6.60

Structure (SMILES): CCCCCCCCCCCCc1c[nH]c(C(=O)OC(C)OC(=O)OCCOCCOCC)c1F (stereo not shown) [Example 19, 4-Oxo-3,5,8,11-tetraoxatridecan-2-yl 4-dodecyl-3-fluoro-1H-pyrrole-2-carboxylate]
- pIC50 [1]: > 7.30
- pIC50 [2]: > 6.60

Structure (SMILES): CCCCCCCCCCCCCc1c[nH]c(C(=O)OC(C)OC(=O)OCc2ccccc2)c1F (stereo not shown) [Example 48, 1-(((Benzyloxy)carbonyl)oxy)ethyl 3-fluoro-4-tridecyl-1H-pyrrole-2-carboxylate]
- pIC50 [1]: > 7.30
- pIC50 [2]: > 6.60

Structure (SMILES): CCCCCCCCCCCCc1c[nH]c(C(=O)OCCOCCOCC)c1F [Example 16, 2-(2-Ethoxyethoxy)ethyl 4-dodecyl-3-fluoro-1H-pyrrole-2-carboxylate]
- pIC50 [1]: 7.00 to 7.30
- pIC50 [2]: > 6.60

Structure (SMILES): CCCCCCCCCCCCCCCc1c[nH]c(C(=O)O)c1Cl [Example 62, 3-Chloro-4-pentadecyl-1H-pyrrole-2-carboxylic acid]
- pIC50 [2]: 6.00 to 6.60

Structure (SMILES): CCCCCCCCCCCCC(F)(F)COc1c[nH]c(C(=O)O)c1F [Example 97, 4-((2,2-Difluorotetradecyl)oxy)-3-fluoro-1H-pyrrole-2-carboxylic acid]
- pIC50 [1]: 6.60 to 7.00
- pIC50 [2]: > 6.60

Structure (SMILES): CCCCCCCCCCCOc1c[nH]c(C(=O)O)c1Cl [Example 79, 3-Chloro-4-(undecyloxy)-1H-pyrrole-2-carboxylic acid]
- pIC50 [1]: > 7.30
- pIC50 [2]: > 6.60

Structure (SMILES): CCCCCCCCCCCCOc1c[nH]c(C(=O)OCC(=O)N(C)CC(=O)OCC)c1 [Example 9, 2-((2-Ethoxy-2-oxoethyl)(methyl)amino)-2-oxoethyl 4-(dodecyloxy)-1H-pyrrole-2-carboxylate]
- pIC50 [2]: 5.30 to 6.00

Structure (SMILES): CCCCCCCCCCCCCc1c[nH]c(C(=O)OC(C)OC(=O)OCCCCCCCCC)c1F (stereo not shown) [Example 46, 1-(((Nonyloxy)carbonyl)oxy)ethyl 3-fluoro-4-tridecyl-1H-pyrrole-2-carboxylate]
- pIC50 [2]: < 5.30

Structure (SMILES): CCCCCCCCCCc1c[nH]c(C(=O)O)c1Cl [Example 56, 3-Chloro-4-decyl-1H-pyrrole-2-carboxylic acid]
- pIC50 [1]: 7.00 to 7.30
- pIC50 [2]: > 6.60

Structure (SMILES): CCCCCCCCCCCCc1c[nH]c(C(=O)OCCN2C(=O)CCC2=O)c1Cl [Example 60, 2-(2,5-dioxopyrrolidin-1-yl)ethyl 3-chloro-4-dodecyl-1H-pyrrole-2-carboxylate]
- pIC50 [2]: 5.30 to 6.00

Structure (SMILES): CCCCCCCCCCCCOc1c[nH]c(C(=O)OCCO)c1 [Example 6, 2-Hydroxyethyl 4-(dodecyloxy)-1H-pyrrole-2-carboxylate]
- pIC50 [2]: 5.30 to 6.00

Structure (SMILES): CCCCCCCCCCCCCc1c[nH]c(C(=O)OCCOCCOCC)c1Cl [Example 109, 2-(2-Ethoxyethoxy)ethyl 3-chloro-4-tridecyl-1H-pyrrole-2-carboxylate]
- pIC50 [2]: 6.00 to 6.60

Structure (SMILES): CCCCCCCCCCCOc1c[nH]c(C(=O)OC(C)OC(=O)OCCOC)c1F (stereo not shown) [Example 106, 1-(((2-Methoxyethoxy)carbonyl)oxy)ethyl 3-fluoro-4-(undecyloxy)-1H-pyrrole-2-carboxylate]
- pIC50 [1]: > 7.30
- pIC50 [2]: > 6.60

Structure (SMILES): CCCCCCCCCCCCOc1c[nH]c(C(=O)O)c1 [Example 1, 4-(Dodecyloxy)-1H-pyrrole-2-carboxylic acid]
- pIC50 [2]: 6.00 to 6.60

Structure (SMILES): CCCCCCCCCCCCCCOc1c[nH]c(C(=O)O)c1F [Example 75, 3-Fluoro-4-(tetradecyloxy)-1H-pyrrole-2-carboxylic acid]
- pIC50 [1]: > 7.30
- pIC50 [2]: > 6.60

Structure (SMILES): CCCCCCCCCCCCOc1c[nH]c(C(=O)OCC)c1 [Example 2, Ethyl 4-(dodecyloxy)-1H-pyrrole-2-carboxylate]
- pIC50 [2]: < 5.30

Structure (SMILES): CCCCCCCCCCCCCCOc1c[nH]c(C(=O)O)c1Cl [Example 90, 3-Chloro-4-(tetradecyloxy)-1H-pyrrole-2-carboxylic acid]
- pIC50 [1]: 7.00 to 7.30
- pIC50 [2]: > 6.60

Structure (SMILES): CCCCCCCCCCCCOc1c[nH]c(C(=O)OCC(O)CO)c1Cl (stereo not shown) [Example 84, 2,3-Dihydroxypropyl 3-chloro-4-(dodecyloxy)-1H-pyrrole-2-carboxylate]
- pIC50 [1]: 6.60 to 7.00
- pIC50 [2]: > 6.60

Structure (SMILES): CCCCCCCCCCCCCc1c[nH]c(C(=O)OCCCCCO)c1F [Example 35, 5-Hydroxypentyl 3-fluoro-4-tridecyl-1H-pyrrole-2-carboxylate]
- pIC50 [1]: 6.60 to 7.00
- pIC50 [2]: > 6.60

Structure (SMILES): CCCCCCCCCCCOc1c[nH]c(C(=O)OC(C)OC(=O)OCCOCCOCC)c1F (stereo not shown) [Example 107, 4-Oxo-3,5,8,11-tetraoxatridecan-2-yl 3-fluoro-4-(undecyloxy)-1H-pyrrole-2-carboxylate]
- pIC50 [1]: > 7.30
- pIC50 [2]: > 6.60

Structure (SMILES): CCCCCCCCCC(F)(F)COc1c[nH]c(C(=O)O)c1F [Example 98, 4-((2,2-Difluoroundecyl)oxy)-3-fluoro-1H-pyrrole-2-carboxylic acid]
- pIC50 [2]: 6.00 to 6.60

Structure (SMILES): CCCCCCCCCCCCCc1c[nH]c(C(=O)OCC(F)(F)F)c1F [Example 27, 2,2,2-Trifluoroethyl 3-fluoro-4-tridecyl-1H-pyrrole-2-carboxylate]
- pIC50 [1]: > 7.30
- pIC50 [2]: > 6.60

Structure (SMILES): CCCCCCCCCCCCCCCCc1c[nH]c(C(=O)O)c1F [Example 132, 3-Fluoro-4-hexadecyl-1H-pyrrole-2-carboxylic acid]
- pIC50 [1]: > 7.30
- pIC50 [2]: > 6.60

Structure (SMILES): CCCCCCCCCCCCCc1c[nH]c(C(=O)OCC(O)CO)c1F (stereo not shown) [Example 40, 2,3-Dihydroxypropyl 3-fluoro-4-tridecyl-1H-pyrrole-2-carboxylate]
- pIC50 [1]: > 7.30
- pIC50 [2]: > 6.60

Structure (SMILES): CCCCCCCCCCCc1c[nH]c(C(=O)O)c1F [Example 13, 3-Fluoro-4-undecyl-1H-pyrrole-2-carboxylic acid]
- pIC50 [1]: > 7.30
- pIC50 [2]: > 6.60

Structure (SMILES): CCCCCCCCCCCOc1c[nH]c(C(=O)O)c1F [Example 72, 3-Fluoro-4-(undecyloxy)-1H-pyrrole-2-carboxylic acid]
- pIC50 [1]: > 7.30
- pIC50 [2]: > 6.60

Structure (SMILES): CCCCCCCCCCCCCc1c[nH]c(C(=O)OC(C)(C)C)c1F [Example 24, Tert-butyl 3-fluoro-4-tridecyl-1H-pyrrole-2-carboxylate]
- pIC50 [2]: 6.00 to 6.60

Structure (SMILES): CCOCCCCCCCCCOc1c[nH]c(C(=O)O)c1Cl [Example 100, 3-Chloro-4-((9-ethoxynonyl)oxy)-1H-pyrrole-2-carboxylic acid]
- pIC50 [2]: 6.00 to 6.60

Structure (SMILES): CCCCCCCCCCCCCOc1c[nH]c(C(=O)O)c1F [Example 74, 3-Fluoro-4-(tridecyloxy)-1H-pyrrole-2-carboxylic acid]
- pIC50 [1]: > 7.30
- pIC50 [2]: > 6.60

Structure (SMILES): CCCCCCCCCCCCCc1c[nH]c(C(=O)O)c1Cl [Example 61, 3-Chloro-4-tridecyl-1H-pyrrole-2-carboxylic acid]
- pIC50 [1]: 6.60 to 7.00
- pIC50 [2]: > 6.60

Structure (SMILES): CCCCCCCCCCCCCc1c[nH]c(C(=O)OCCO)c1F [Example 32, 2-Hydroxyethyl 3-fluoro-4-tridecyl-1H-pyrrole-2-carboxylate]
- pIC50 [2]: 6.00 to 6.60

Structure (SMILES): CCCCCCCCCC(C)(C)CCc1c[nH]c(C(=O)O)c1F [Example 95, 4-(3,3-Dimethyldodecyl)-3-fluoro-1H-pyrrole-2-carboxylic acid]
- pIC50 [1]: > 7.30
- pIC50 [2]: > 6.60

Structure (SMILES): CCCCCCCCCC(F)(F)CCc1cc(Cl)c(C(=O)O)[nH]1 [Example 128, 3-Chloro-5-(3,3-difluorododecyl)-1H-pyrrole-2-carboxylic acid]
- pIC50 [1]: > 7.30
- pIC50 [2]: 6.00 to 6.60

Structure (SMILES): CCCCCCCCCCCCCc1c[nH]c(C(=O)OC(C)OC(=O)OCCCO)c1F (stereo not shown) [Example 50, 1-(((3-Hydroxypropoxy)carbonyl)oxy)ethyl 3-fluoro-4-tridecyl-1H-pyrrole-2-carboxylate]
- pIC50 [1]: > 7.30
- pIC50 [2]: > 6.60

Structure (SMILES): CCCCCCCCCCCCOc1c[nH]c(C(=O)OCc2oc(=O)oc2C)c1 [Example 11, (5-methyl-2-oxo-1,3-dioxol-4-yl)methyl 4-(dodecyloxy)-1H-pyrrole-2-carboxylate]
- pIC50 [1]: 6.60 to 7.00
- pIC50 [2]: > 6.60

Structure (SMILES): CCCCCCCCCCCCCCCc1c[nH]c(C(=O)O)c1F [Example 53, 3-Fluoro-4-pentadecyl-1H-pyrrole-2-carboxylic acid]
- pIC50 [1]: > 7.30
- pIC50 [2]: > 6.60
